Test results as given in patent US4221909A, “P-Acetamidobenzoic acid salts of 9-(hydroxyalkyl) purines” (Sloan-Kettering Institute for Cancer Research, priority 1978, dated 1980).
Entries after “also recorded” stand apart in the source; their conditions may differ.

How the values were obtained:
Format in all cases: cell-based
[1] = tested on: Influenza A USSR/90(H1 N1); test: Anti-Influenza Activity (Hemadsorption Assay), Influenza A USSR/90; conditions: for inhibition: Influenza A virus, read-out: % Inhibition of Hemadsorption Foci
Experimental: (§1) Upon infection of a monolayer of tissue culture cells by influenza virus, the cell surface is altered so that guinea pig erythrocytes can be adsorbed to the cell surface. The number of foci of adsorbed cells (hemadsorption foci forming units HAFFU) is a quantitative measure of infectivity. The method is as follows.
The monolayers were subcultured in the following manner: The medium was poured off, and the monolayer washed two times with approximately 50 ml per wash of calcium and magnesium free phosphate buffered saline (PBS), (GIBCO #419) at a pH of 7.2. One ml of trypsin-EDTA solution (GIBCO #530L) containing 0.5 g trypsin (1:250) and 2.0 g EDTA/liter of Modified Puck's Saline A was added at 37° C. to each flask and dispersed over the monolayer with gentle shaking. The flasks were then placed in an incubator at 37° C. for approximately 3-5 minutes depending on the time required to dislodge the cells. Occasional shaking was required. Ten ml of planting medium was added to each flask and the cells dispersed by aspirating and expelling the suspension from the pipette. The contents of a series of flasks were pooled and the cells in the suspension were diluted with planting medium to 7-8.5×10^4 cells/ml. The planting medium consisted of the following composition: Minimum Essential Medium Eagles (MEM) with Earle's salts and HEPES buffer (GIBCO #236) supplemented by adding the following substances as specified to 87 ml of MEM:
The following day the medium was removed and replaced with fresh planting medium. The monolayers were used for experimentation when they reached a condition in which they were almost confluent (approximately 3-4 days).
(§2) When the Linbro tray HeLa cell cultures were ready for experimentation (see cells), the medium was decanted and 1 ml of maintenance medium (MEM with FCS reduced to 3%) containing the compound being tested at a given concentration was added to 4 replicate cultures within a tray.
(§3) A series of different drug concentrations ranging from 2.3 to 150 μg/ml were used. Maintenance medium alone was used for control cultures. After the administration of drug and control medium, 0.1 ml of the diluted viral suspension was added to experimental groups and infected control cultures. Saline alone was added to non-infected control cultures. The Linbro trays were then incubated at 37° C. for 18 hours, after which media in all groups was aspirated. Each culture was washed once with PBS. The saline was aspirated and 0.5 ml of a 0.4% v/v guinea pig red blood cell suspension in PBS was added to each culture well. The cultures remained at room temperature for 30 minutes after which the medium was decanted and culture washed […] with PBS to remove all but the specifically bound red cells. After the third wash, maintenance medium was added to all cultures.
(§4) A Howard Micrometer eyepiece (C8385) was inserted within the ocular of a Nikon inverted phase contrast microscope. Each culture was scanned with a 4× low paper objective and direct counts of hemadsorbed red cells were counted using the eyepiece grid as a field marker. Partial or complete fields were counted per experimental group depending on the resulting number and density of hemadsorbed cells in the infected control cultures. Magnification of 60× or 150× were chosen to obtain the best conditions for enumerating the hemadsorbed cells. Field factors were calculated for counting hemadsorption at 60× and 150×. At 60× magnification, total field count was calculated using a multiplication factor of 55.5. At 150× magnification the multiplication factor was 273. The multiplication factors of 55.5 and 273 represent the total number of fields at 60× and 150× magnifications, respectively. The number of fields counted ranged from 3 to 5 per well with 3 to 4 wells per treatment group employed (see raw data tables in results section for number of fields examined). Means and standard errors were calculated and the data was evaluated using student's t-test analysis.

[2] = tested on: Influenza A Swine 1976 (Hlsw -N1); test: Inhibition of influenza virus replication, Swine 1976
Experimental: as §1, §2, §3, §4

[3] = tested on: Mouse spleen cells; test: Mitogen Induced (Con A) Mouse Lymphocyte Proliferation
Text: (§5) The following three assay procedures are used to evaluate the ability of the test substances to modulate the activity of several classes of cells in the immune system. In these systems it is possible to identify both immunopotentiating activity (evidence by an enhancement of the parameter examined) as well as immunosuppressant activity (evidenced by an inhibition of the parameter examined).
1. Mitogen--Induced Mouse Spleen Cell Assay--Mouse spleen cells contain a population of both B and T lymphocytes which can be stimulated by a number of foreign substances (e.g., plant mitogens such as Con A) to proliferate. This enhanced proliferation is an indication of enhanced cell mediated immunity. The method below describes the system used to evaluate test substances as immunopotentiators.
Concanavalin A (Calbiochem, La Jolla, Calif.), Lot #210073, lyophilized in NaCl, was prepared first as a 1% solution and diluted as a 2× concentration for each dilution (0.5, 1.0, 2.5 μg/ml).
Six to eight week old male Balb/c and C3 H inbred mice were obtained from the following sources: Flow Research Animals, Inc., Dublin, Va.; Charles River Breeding Laboratories, Wilmington, Mass.; Laboratory Supply Company, Indianapolis, Ind.; and Lionel Strong Foundation, San Diego, Calif.
Three to five mice were sacrificed by cervical dislocation and the spleens aseptically removed. Pooled spleens were minced and teased with sterile forceps; then strained through a double layer of nylon mesh. The cell suspension was washed once with 15 ml of RPMI 1640 supplemented with 5% fetal calf serum and antibiotics. Cells were cultured at a concentration of 10^6 cells/0.1 ml/well in micro-plates. Cultures were incubated in the presence or absence of mitogen in a humidified atmosphere containing 5% CO2 for 48 hours. The test compound was added to cultures at various concentrations concommitant with mitogen.
Proliferation was assayed by the degree of incorporation of 1.0 μCi of [^3 H] thymidine over an 18 hour incubation period. Cultures were harvested by a MASH unit (Otto Hiller Co., Madison, Wisconsin) and thymidine incorporation was assayed by liquid scintillation spectrometry. Cultures were performed in triplicate and data are expressed as means plus or minus the strandard error of the experimental means. Drug stimulation indices over control values were also calculated and portrayed graphically.

[4] = tested on: influenza virus; test: Anti-influenza activity (summary); conditions: for number of different strains of influenza virus inhibited: concentrations ranging from 1-150 μg/ml
[5] = tested on: immune response; test: Immunomodulation / immune response potentiation (summary); conditions: for potentiation of the immune response: three test systems of Table 4; for DIP.PAcBA potentiation of Immunpotentiation: DIP.PAcBA salt vs parent compound
Text: as §5
Table 4 above presents the results of an evaluation of a number of these subject compounds as potentiators of the immune response. Three different test systems were used. The first involves a measure of the ability of the test compound to enhance the ability of mouse lymphocytes to proliferate in response to a plant mitogen (Con A). The second involves measuring the ability of the test compounds to enhance human lymphocyte proliferation in response to a second plant mitogen (PHA). The third system measures the ability of these test substances to enhance macrophage proliferation in response to a natural lymphokine (MMF, Macrophage Mitogenic Factor).

| Compound | inhibition ([1]; Conc. 10-100 μg/ml) [%] | % Inhibition ([2]; 10-100 μg/ml) [%] | anti-influenza activity by themselves [4] | number of different strains of influenza virus inhibited [4] | % Inhibition ([2]; >100 μg/ml) [%] | potentiation of the immune response [5] | % Inhibition of Hemadsorption Foci ([1]; Conc. 10-100 μg/ml) [%] | % Inhibition of Hemadsorption Foci ([1]; Conc. >100 μg/ml) [%] | DIP.PAcBA potentiation of Anti-Influenza activity [4] | DIP.PAcBA potentiation of Immunpotentiation [5] | other results |
| --- | --- | --- | --- | --- | --- | --- | --- | --- | --- | --- | --- |
| CCCCCCC(CO)n1cnc2c(=O)[nH]cnc21 (stereo not drawn) [NPT 15417] | 58 | > 70 | significant anti-influenza activity | at least 4 different strains | – | – | – | – | – | – | Maximum Percent Change, Mitogen Induced (Con A) Mouse Lymph. Prolif. ([3]; 1.0-10, listed as 15417): 0%; Maximum Percent Change, Mitogen Induced (Con A) Mouse Lymph. Prolif. ([3]; 10-100, listed as 15417): 0%; Maximum Percent Change, Mitogen Induced (Con A) Mouse Lymph. Prolif. ([3]; .01-1.0, listed as 15417): 0% |
| CCCCCC[C@H]([C@H](C)O)n1cnc2c(=O)[nH]cnc21 (relative stereo) [NPT 15392, Erythro-9-(2-Hydroxy-3-Nonyl)Hypoxanthine] | 100 | > 70 | significant anti-influenza activity | at least 4 different strains | > 70 | Significant potentiation | – | – | – | – | % Inhibition of Hemadsorption Foci ([1]; Conc. <10 μg/ml, listed as 15392): 86%; % Inhibition ([2]; 0.1-1.0 μg/ml, listed as 15392): 30-50% |
| CCCCCCC(CO)n1cnc2c(=O)[nH]cnc21 (stereo not drawn) [NPT 15418] | – | – | – | – | > 70 | Significant potentiation | 46 | 52 | does potentiate the anti-influenza activity and Yes | Yes | % Inhibition of Hemadsorption Foci ([1]; Conc. <10 μg/ml): 16%; Maximum Percent Change, Mitogen Induced (Con A) Mouse Lymph. Prolif. ([3]; 1.0-10, listed as 15418): 73%; Maximum Percent Change, Mitogen Induced (Con A) Mouse Lymph. Prolif. ([3]; 10-100, listed as 15418): 26%; Maximum Percent Change, Mitogen Induced (Con A) Mouse Lymph. Prolif. ([3]; .01-1.0, listed as 15418): 41% |
| CCCCCC[C@H]([C@H](C)O)n1cnc2c(=O)[nH]cnc21 (relative stereo) [NPT 15410] | – | – | – | – | – | Significant potentiation | 96 | 96 | does not potentiate the anti-influenza activity; also recorded: Both are equally active | Yes | % Inhibition of Hemadsorption Foci ([1]; Conc. <10 μg/ml, listed as 15410): 58%; % Inhibition ([2]; 0.1-1.0 μg/ml, listed as 15410): 50-70%; % Inhibition ([2]; 1.0-10 μg/ml): 30-50%; Maximum Percent Change, Mitogen Induced (Con A) Mouse Lymph. Prolif. ([3]; 1.0-10): 40%; Maximum Percent Change, Mitogen Induced (Con A) Mouse Lymph. Prolif. ([3]; 10-100): 40%; Maximum Percent Change, Mitogen Induced (Con A) Mouse Lymph. Prolif. ([3]; .01-1.0): 140% |
